Data published in patent US20250179079A1, “HEXAHYDROPYRIDO[4,3-B]INDOLYL KETONE DERIVATIVES USEFUL AS CGAS MODULATORS” (Ventus Therapeutics U.S., Inc., priority 2022, published 2025).
≈ marks a conversion by molar mass, not a printed value. Where two headings read alike, the source gives them in different places.

How the values were obtained:
[1] = Solubility (e.g., in phosphate buffered saline (PBS)); format: physicochemical; conditions: aqueous buffer, Table D
h-cGAS = h-cGAS (Homo sapiens (Human), UniProt Q8N884); assay: hcGAS Kinase-Glo assay; format: biochemical
[2] = Table D comparative data, IC50 range designation, read-out: hcGAS (IC50)
[3] = Table D comparative data, raw data in parentheses, read-out: hcGAS (IC50)
[4] = Table C, raw data in parentheses, read-out: hcGAS IC50

h-cGAS, sequence (Q8N884 whole entry): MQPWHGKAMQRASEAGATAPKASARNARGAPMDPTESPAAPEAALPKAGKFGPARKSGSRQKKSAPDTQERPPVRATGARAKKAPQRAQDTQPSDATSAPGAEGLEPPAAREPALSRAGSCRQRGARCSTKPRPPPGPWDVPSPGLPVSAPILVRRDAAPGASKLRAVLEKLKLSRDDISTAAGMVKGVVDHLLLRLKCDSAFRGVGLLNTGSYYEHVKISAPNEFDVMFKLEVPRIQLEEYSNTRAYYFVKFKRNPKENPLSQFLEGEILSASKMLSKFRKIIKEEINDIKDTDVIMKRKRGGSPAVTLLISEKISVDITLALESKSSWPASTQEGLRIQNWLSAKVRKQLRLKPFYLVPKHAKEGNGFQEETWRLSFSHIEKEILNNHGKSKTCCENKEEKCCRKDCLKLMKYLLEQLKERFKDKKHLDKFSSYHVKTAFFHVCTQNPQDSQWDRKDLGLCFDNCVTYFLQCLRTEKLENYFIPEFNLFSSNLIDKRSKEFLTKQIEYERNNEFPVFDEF

SMILES | solubility [1] | IC50 (h-cGAS; [2]) | IC50 (h-cGAS; [3]) | IC50 (h-cGAS; [4])
O=C(CO)N1CCn2nc3c(Cl)c(Cl)ccc3c2C1 [Comparative Example C, 1-(7,8-dichloro-3,4-dihydropyrazino[1,2-b]indazol-2(1H)-yl)-2-hydroxyethan-1-one, reference compound] | 76 µM (≈ 22.8 µg/mL) | > 5000 nM | 12800 nM | 
Cn1ccc(-c2cc(Cl)c(Cl)c3[nH]c4c(c23)CN(C(=O)CO)CC4)n1 [Comparative Example B, 1-(6,7-dichloro-9-(1-methyl-1H-pyrazol-3-yl)-1,3,4,5-tetrahydro-2H-pyrido[4,3-b]indol-2-yl)-2-hydroxyethan-1-one, reference compound] | 8.1 µM (≈ 3.07 µg/mL) | < 100 nM | 35.2 nM | 
Cn1ccc(-c2cc(Cl)c(Cl)c3nn4c(c23)CN(C(=O)CO)CC4)n1 [Comparative Example D, 1-(7,8-dichloro-10-(1-methyl-1H-pyrazol-3-yl)-3,4-dihydropyrazino[1,2-b]indazol-2(1H)-yl)-2-hydroxyethan-1-one, reference compound] | 53 µM (≈ 20.2 µg/mL) |  |  | 
COc1cnc(C(=O)N2CCc3[nH]c4c(Cl)c(Cl)cc(C)c4c3C2C)nc1 (racemic) [Rac-103, (6,7-dichloro-1,9-dimethyl-1,3,4,5-tetrahydro-2H-pyrido[4,3-b]indol-2-yl)(5-methoxypyrimidin-2-yl)methanone] |  |  |  | 115 nM

Next, values leading:

solubility [1] | IC50 (h-cGAS; [2]) | IC50 (h-cGAS; [3]) | IC50 (h-cGAS; [4]) | SMILES
2 µM (≈ 0.598 µg/mL) |  |  |  | O=C(CO)N1CCc2[nH]c3c(Cl)c(Cl)ccc3c2C1 [Comparative Example A, 1-(6,7-dichloro-1,3,4,5-tetrahydro-2H-pyrido[4,3-b]indol-2-yl)-2-hydroxyethan-1-one]
42 µM (≈ 13.2 µg/mL) |  |  |  | C[C@H]1c2c([nH]c3c(Cl)c(Cl)ccc23)CCN1C(=O)CO [Compound 157, (S)-1-(6,7-dichloro-1-methyl-1,3,4,5-tetrahydro-2H-pyrido[4,3-b]indol-2-yl)-2-hydroxyethan-1-one]
 |  |  | 52 nM | CC1c2c([nH]c3c(Cl)c(Cl)ccc23)CCN1C(=O)c1ncc(N2CCN(C)CC2)cn1 (racemic) [Rac-48, (6,7-dichloro-1-methyl-1,3,4,5-tetrahydro-2H-pyrido[4,3-b]indol-2-yl)(5-(4-methylpiperazin-1-yl)pyrimidin-2-yl)methanone]
 |  |  | 110 nM | CC1c2c([nH]c3c(Cl)c(Cl)ccc23)CCN1C(=O)c1nccc(OCCN(C)C)n1 (racemic) [Rac-88, (6,7-dichloro-1-methyl-1,3,4,5-tetrahydro-2H-pyrido[4,3-b]indol-2-yl)(4-(2-(dimethylamino)ethoxy)pyrimidin-2-yl)methanone]
